Literature values as cited in patent publication EP0306335A1, “Analysis of ions present at low concentrations in solutions containing other ions” (Bradshaw, Jerald S., priority 1987, dated 1989).

Details: ligand as solute in solution

For O=C(O)CN(CCN(CC(=O)O)CC(=O)O)CC(=O)O [EDTA, ethylenediaminetetraacetic acid], the “log of the equilibrium constant (log K) for interaction with Sr²⁺” value is given as 8.73.
